From patent US20040175378A1, “Selected antibody compositions and methods for binding to aminophospholipids” (Board of Regents, The University of Texas System, priority 2002, published 2004)

Columns and labels:
[1] = progressive disease before treatment; cited from earlier work
Factor X = experiment: Chromogenic assay of coaguligand-induced Factor Xa formation on bEnd.3 cells; format: cell-based; details: Annexin V 10 μg per ml; cells preincubated with anti-VCAM-1•tTF
Procedure: The ability of Annexin V to affect Factor Xa formation induced by coaguligand was determined by a chromogenic assay. IL-1α-stimulated bEnd.3 cells were incubated with anti-VCAM-•tTF and permeabilized by saponin. Annexin V was added at concentrations ranging from 0.1 to 10 μg/ml and cells were incubated for 30 min. before addition of diluted Proplex T. The amount of Factor Xa generated in the presence or absence of Annexin V was determined. Each treatment was performed in duplicate and repeated at least twice.
Annexin V added to permeabilized cells preincubated with anti-VCAM-1•tTF inhibited the formation of factor Xa in a dose-dependent manner. In the absence of Annexin V, cell-bound coaguligand produced 95 ng of factor Xa per 10,000 cells per 60 min. The addition of increasing amounts of Annexin V (in the μg per ml range) inhibited factor Xa production. At 10 μg per ml, Annexin V inhibited factor Xa production by 58%.

[2] = system: blood vessels of L540 Hodgkin tumors; experiment: Annexin V inhibition of coaguligand-induced thrombosis in vivo; parameters: species or system SCID mice; details: 100 μg Annexin V 2 hours before 40 μg anti-VCAM-1•tTF
Procedure: The ability of Annexin V to inhibit coaguligand-induced thrombosis in vivo was examined in L540 Hodgkin-bearing SCID mice. Tumors were grown in mice and two mice per group (tumor size 0.5 cm in diameter) were injected intravenously via the tail vein with one of the following reagents: a) saline; b) 100 μg of Annexin V; c) 40 μg of anti-VCAM-1•tTF; d) 100 μg of Annexin V followed 2 hours later by 40 μg of anti-VCAM-1•tTF.
Four hours after the last injection mice were anesthetized and perfused with heparinized saline. Tumors were removed, fixed with 4% formalin, paraffin-embedded and stained with hematoxylene-eosin. The number of thrombosed and non-thrombosed blood vessels was counted and the percentage of thrombosis was calculated.

[3] = Phospholipid specificity ELISA; format: binding; details: phospholipid-coated plates
Procedure: The specificity of the antibodies was determined by ELISA using plates coated with the following phospholipids: PS, phosphatidylserine; PE, phosphatidylethanolamine; PI, phosphatidylinositol; PA, phosphatidic acid; PG, phosphatidylglycerol; PC, phosphatidylcholine; CL, cardiolipin; and SM, sphingomyelin.

[4] = ELISA binding to anionic phospholipids in 5 mM EDTA (Ca2+ requirement)
Procedure: The specificity of the 9D2 antibody binding was validated by using control rat IgM of irrelevant specificity (Pharmingen, San Diego, Calif.). The specificity of annexin V binding to phospholipids, which is Ca^2+-dependent, was determined by diluting the reagent in the DPBS containing 5 mM EDTA. Additional negative controls consisted of washing the plates with the binding buffer containing 0.2% of a detergent Tween 20. This treatment extracts lipids, thus removing the phospholipid that was absorbed to plastic. Neither 9D2 antibody nor annexin V bound to detergent-washed plates.

[5] = system: anionic phospholipids on vascular endothelium; experiment: Localization of 9D2 and annexin V in tumor bearing mice, indirect immunohistochemistry; format: in vivo; details: 50 μg antibody or 100 μg biotinylated annexin V i.v., 60 min
Procedure: To detect externally-positioned phospholipids, methods were performed essentially as previously described (Example V; Ran et al., 1998). Tumor-bearing SCID mice were injected intravenously with either 50 μg of 9D2 or biotinylated 9D2 antibody or 100 μg of biotinylated annexin V. Sixty min later mice were sacrificed and their blood circulation was exsanguinated and perfused with heparinized saline as previously described (Burrows et al., 1992). All major organs and tumor were harvested and snap-frozen for preparation of cryosections.
Sections were blocked with PBS containing 10% serum. To prevent loss of phospholipids during slide processing, detergents and organic solvents were omitted from blocking and washing buffers. Rat IgM was detected using goat anti rat IgM (μ specific)-HRP conjugate followed by development with carbazole or DAB (Fries et al., 1993). Biotinylated reagents were detected by streptavidin conjugated to HRP.
Tumor sections derived from mice injected with saline or rat IgM of irrelevant specificity served as negative controls. […] No signal was detected under these conditions. The number of positive vessels per high power field was determined at magnification of ×100. At least 10 fields per section were examined and the average percentage of positive vessels was calculated. […]
Structures with localized 9D2 antibody or annexin V were identified as blood vessels by morphological appearance on DAB-stained sections and by co-incident staining with the pan-endothelial cell marker, MECA 32 on serial sections of frozen tissues. Quantification on DAB-stained sections was done by counting vessels stained by MECA 32, 9D2 or annexin V in serial sections of a tumor. […] At least 10 random fields per section (0.317 mm^2/field) were scored in blinded fashion by two independent observers. The mean numbers and standard errors of vessels stained by 9D2, annexin V or MECA 32 were calculated. The mean number of 9D2 or annexin V-positive vessels determined in each tumor type group was compared to the mean number of MECA 32-positive vessels in the same tumor group. […]

[6] = system: vascular endothelium of MDA-MB-231 breast tumors; experiment: Double staining of orthotopic MDA-MB-231 tumors after i.v. biotinylated 9D2 or annexin V; format: in vivo, mice; details: 1 h
Procedure: In further studies, mice bearing MDA-MB-231 tumors (0.3-0.7 cm^3 in volume) were injected intravenously with 50 μg of biotinylated 9D2, control IgM or annexin V (six mice per group). Biotinylated reagents were first incubated with streptavidin-Cy3 conjugate, washed in PBS, then incubated with MECA 32 antibody followed by FITC-tagged anti-rat IgG secondary antibody. Single images, taken with appropriate filters for Cy3 (red) and FITC (green) fluorescence respectively, were captured by digital camera and transferred to a computer. […] The same method was used to analyze tumors from mice injected with control rat IgM or saline. The percentage of vessels with localized 9D2 or annexin V was calculated as follows: mean number of yellow vessels per field divided by mean number of green (total) vessels multiplied by 100.
Double staining studies were also performed in which mice bearing orthotopic MDA-MB-231 breast tumors were injected intravenously with biotinylated 9D2 antibody, biotinylated control IgM or biotinylated annexin V. One hour later, the mice were exsanguinated, and their tumors were removed and frozen sections were cut. The tumor sections were then stained with Cy3-conjugated streptavidin to detect the biotinylated proteins and with FITC-conjugated MECA32 to detect vascular endothelium. […]

[7] = system: orthotopic MDA-MB-435 breast cancer; experiment: 3G4 and ch3G4 tumor treatment; format: in vivo, mice; details: i.p. 800 μg day 15, 200 μg every two to three days, 400 μg day 35
Procedure: Tumors were also established using MD-MBA-435s cells and treated as described above. […] The treatment of large L540 tumors, MDA-MB-231 and MD-MBA-435s tumor cells for 60 days is shown in FIG. 8D, FIG. 8E and FIG. 8F. The antibodies caused tumor vascular injury, thrombosis and necrosis and retarded tumor growth, with no evidence of toxicity.
MD-MBA-435s lucerifase cells were obtained from Dr. Angels Sierra Jimenez, Barcelona, Spain and were grown in 10% DMEM. Mice were injected with tumor cells as described as above, and at 2 weeks post injection, the tumors were measured and the volume recorded. […] Treatment was initiated by IP injection (800 μg) at day 15 and continued with injections of 200 μg every two to three days until the final injection of 400 μg at day 35. Tumor volumes and mouse body weights were measured on injection days. Mice were sacrificed and perfused with saline for 12 minutes. The organs and tumor were removed, snap-frozen in liquid nitrogen and the tumor sectioned for immunohistochemistical analysis.

[8] = Binding of chimeric 3G4 to phospholipid-coated ELISA plates
Description: FIG. 21. […] Phospholipids (PS, PI, PE, PC, SM, CL, PG and PA) were adsorbed to plastic of microtiter plates.

[9] = system: tumor vascular endothelium of MDA-MB-435 tumors; experiment: Localization of biotinylated ch3G4 in tumors; format: in vivo, mice; details: i.v., one hour
Procedure: Localization of ch3G4 was examined in MDA-MB-435 human breast cancer cells growing in mice. Mice were injected intravenously with biotinylated ch3G4 or control IgG of irrelevant specificity. One hour later, the mice were exsanguinated, and their tumors were removed and frozen sections were cut. Biotinylated reagents were first incubated with streptavidin-Cy3 conjugate, washed in PBS, then incubated with MECA 32 antibody followed by FITC-tagged secondary antibody. Single images, taken with appropriate filters for Cy3 (red) and FITC (green) fluorescence respectively, were captured by digital camera and transferred to a computer.

mCMV RVG102 = experiment: Survival of mCMV-infected mice; format: in vivo, Balb/C mice; details: 1 mg/mouse i.p. day 1, 0.5 mg/mouse every four days until day 26; past 90 days
[10] = system: Vaccinia virus-infected U937 cells; format: cell-based; details: day 2 after infection, m.o.i. 2

## NC(=O)c1nnn(Cc2cc(Cl)c(C(=O)c3ccc(Cl)cc3)c(Cl)c2)c1N [CAI, carboxyamidotriazole]
[1]
  cancer patients with disease stabilization: 49%

## Annexin V: natural ligand that binds to anionic phospholipids; commercial biotinylated or recombinant human annexin V
Factor X
  inhibition of factor Xa production: 58%
[2]
  coaguligand-induced intravascular thrombosis and changes in tumor cell morphology: completely abolished
[3]
  Relative Strength of Reactivity on ELISA: PS = PE = PI = PA > CL > PG
[4]
  binding to anionic phospholipids in the presence of 5 mM EDTA: abolished in the presence of 5 mM EDTA
[5]; B16 tumor
  positive vessels of MECA 32-stained vessels per field, mean ± SE: 21.3 ± 6.6%
[5]; L540cy tumor
  positive vessels of MECA 32-stained vessels per field, mean ± SE: 16.7 ± 3.9%
[5]; MDA-MB-231 tumor
  positive vessels of MECA 32-stained vessels per field, mean ± SE: 45.3 ± 5.6%
[6]
  MECA 32 positive vessels that bound the reagent: About 40%

## ch3G4: human-mouse chimeric 3G4: murine variable regions on human γ1 and κ constant regions, expressed in CHO cells
[7]
  tumor growth as opposed to control: effectively retarded tumor growth
[8]
  binding to phospholipid-coated ELISA plates: bound at least as did well as the murine 3G4
[9]
  localization to tumor vascular endothelium: binds to the tumor vascular endothelium
mCMV RVG102
  survival: 80%
[10]
  binding to virus-infected vs uninfected cells (FACS): significant shift
